How the values were obtained:
Experiment in all cases: KinaseProfiler in vitro kinase panel ([…] human kinases), single concentration […]
Type in all cases: biochemical
[1] = target: T1, ROCK-I (Homo sapiens, UniProt Q13464)
T1 construct: gene ROCK1

[2] = target: T2, p70S6K (Homo sapiens, UniProt P23443)
T2 construct: gene RPS6KB1

[3] = target: T3, PKG1α (Homo sapiens, UniProt Q13976)
T3 construct: gene PRKG1
T3 sequence (Q13976 2-671): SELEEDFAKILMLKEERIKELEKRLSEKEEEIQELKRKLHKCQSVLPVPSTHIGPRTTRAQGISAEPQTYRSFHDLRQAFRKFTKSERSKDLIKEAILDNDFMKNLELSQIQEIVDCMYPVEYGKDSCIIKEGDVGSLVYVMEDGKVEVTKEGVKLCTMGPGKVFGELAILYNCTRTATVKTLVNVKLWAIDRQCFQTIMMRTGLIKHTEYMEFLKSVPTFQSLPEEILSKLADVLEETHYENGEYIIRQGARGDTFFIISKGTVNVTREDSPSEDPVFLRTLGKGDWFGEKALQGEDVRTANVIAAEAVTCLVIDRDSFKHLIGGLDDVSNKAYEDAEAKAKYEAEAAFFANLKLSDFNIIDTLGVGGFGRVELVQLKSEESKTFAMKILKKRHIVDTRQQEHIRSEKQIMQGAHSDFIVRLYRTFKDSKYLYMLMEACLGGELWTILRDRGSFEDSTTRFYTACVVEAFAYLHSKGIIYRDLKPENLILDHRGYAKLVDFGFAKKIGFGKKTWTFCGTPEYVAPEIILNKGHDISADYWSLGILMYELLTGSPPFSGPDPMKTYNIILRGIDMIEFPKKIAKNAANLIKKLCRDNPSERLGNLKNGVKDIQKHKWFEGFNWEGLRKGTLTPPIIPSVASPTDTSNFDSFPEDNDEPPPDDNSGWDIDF

[4] = target: T4, PKA (Homo sapiens, UniProt P17612)
T4 construct: gene PRKACA

Measured: inhibition at 5 µM

T1 sequence (Q13464 2-1354): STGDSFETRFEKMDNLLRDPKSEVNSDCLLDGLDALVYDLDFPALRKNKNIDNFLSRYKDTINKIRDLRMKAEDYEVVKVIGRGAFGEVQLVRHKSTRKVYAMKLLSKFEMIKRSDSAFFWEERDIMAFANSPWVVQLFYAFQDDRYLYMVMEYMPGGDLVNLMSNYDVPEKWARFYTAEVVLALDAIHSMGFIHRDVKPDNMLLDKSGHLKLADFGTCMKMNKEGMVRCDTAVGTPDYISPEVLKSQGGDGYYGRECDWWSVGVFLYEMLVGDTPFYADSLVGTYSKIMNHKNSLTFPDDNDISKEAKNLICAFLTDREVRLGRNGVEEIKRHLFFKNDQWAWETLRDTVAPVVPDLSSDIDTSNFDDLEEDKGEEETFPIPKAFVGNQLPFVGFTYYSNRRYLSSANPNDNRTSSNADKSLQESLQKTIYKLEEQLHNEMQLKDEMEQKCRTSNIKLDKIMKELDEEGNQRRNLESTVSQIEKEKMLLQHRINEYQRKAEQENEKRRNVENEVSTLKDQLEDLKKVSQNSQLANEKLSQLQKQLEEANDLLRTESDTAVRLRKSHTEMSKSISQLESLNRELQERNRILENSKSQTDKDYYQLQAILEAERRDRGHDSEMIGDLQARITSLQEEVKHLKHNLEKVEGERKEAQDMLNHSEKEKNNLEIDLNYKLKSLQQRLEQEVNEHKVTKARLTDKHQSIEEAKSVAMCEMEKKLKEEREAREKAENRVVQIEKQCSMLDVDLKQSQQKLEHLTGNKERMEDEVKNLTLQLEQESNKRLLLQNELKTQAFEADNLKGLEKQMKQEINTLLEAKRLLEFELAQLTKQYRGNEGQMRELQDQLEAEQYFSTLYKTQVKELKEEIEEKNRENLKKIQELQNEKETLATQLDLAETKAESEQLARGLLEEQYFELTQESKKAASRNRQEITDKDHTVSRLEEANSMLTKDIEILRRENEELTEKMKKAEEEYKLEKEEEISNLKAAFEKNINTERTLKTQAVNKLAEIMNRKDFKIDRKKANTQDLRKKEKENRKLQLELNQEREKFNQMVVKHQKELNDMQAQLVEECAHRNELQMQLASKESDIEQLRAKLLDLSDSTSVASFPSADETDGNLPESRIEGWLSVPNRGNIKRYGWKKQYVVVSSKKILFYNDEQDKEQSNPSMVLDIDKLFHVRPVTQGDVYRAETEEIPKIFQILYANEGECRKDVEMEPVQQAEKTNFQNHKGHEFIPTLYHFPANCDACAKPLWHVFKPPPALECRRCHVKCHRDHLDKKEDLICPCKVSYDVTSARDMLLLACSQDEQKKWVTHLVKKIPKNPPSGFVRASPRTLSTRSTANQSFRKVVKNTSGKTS
T2 sequence (P23443 whole entry): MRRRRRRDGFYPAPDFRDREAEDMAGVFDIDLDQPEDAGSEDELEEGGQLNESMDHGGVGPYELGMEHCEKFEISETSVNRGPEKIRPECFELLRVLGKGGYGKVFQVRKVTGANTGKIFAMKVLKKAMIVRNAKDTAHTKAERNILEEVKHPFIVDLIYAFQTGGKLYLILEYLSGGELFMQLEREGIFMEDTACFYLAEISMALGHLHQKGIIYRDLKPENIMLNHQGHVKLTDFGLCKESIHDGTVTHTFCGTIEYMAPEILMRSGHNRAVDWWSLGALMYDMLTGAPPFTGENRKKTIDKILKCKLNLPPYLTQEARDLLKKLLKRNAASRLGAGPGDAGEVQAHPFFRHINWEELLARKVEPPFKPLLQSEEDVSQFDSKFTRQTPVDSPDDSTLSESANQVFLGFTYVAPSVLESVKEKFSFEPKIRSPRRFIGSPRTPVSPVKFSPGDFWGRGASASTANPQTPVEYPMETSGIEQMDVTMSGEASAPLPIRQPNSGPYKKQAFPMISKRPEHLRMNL

COc1cc(NC(=O)C2COc3ccccc3C2)ccc1-c1cnco1 (stereo not shown) [CompA, CompoundA]
> 75%: all assays above
